# Patent US12042478B2, “(R)-2-[(2H-1,3-benzodioxol-5-yl)methyl]pyrrolidine and processes for preparation, compositions and uses thereof” (Pharmala Biotech Inc., priority 2022, dated 2024)
# Columns and labels:
# DAT = DAT (Homo sapiens, UniProt Q01959); test: QSAR model predicted IC50, DAT; details: ratio = 1/DAT IC50:1/SERT IC50, from predicted IC50
# Description: In silico studies (QSAR and docking) are useful tools to understand drug mechanisms, and they are relatively cheaper and faster than experiments. A QSAR model was created for each monoamine transporter. Additionally, the docking properties of phenethylamines were investigated.
# QSAR: DAT, SERT and NET IC50 values were collected from the literature for 73 phenethylamines. Three different software's were used for descriptor calculations, and almost 2000 descriptors were calculated. Highly correlated descriptors were eliminated before multi-linear regression (MLR) analysis. All descriptors were merged with experimental inhibition values in QSARiNS software. The multi-Criteria Decision-Making tool of QSARiNS was used to pick the best model.
# The predicted IC^50 (mM) values of the test molecules generated based on the QSAR developed as described above are presented in Table 4.
# C57 and BTBR mice [1] = test: Conditioned place preference; assay type: in vivo, mouse
# Description: The same 2-compartment chambers as described above in the social preference studies for conditioned place preference. For these studies, compartments are differentiated by floor texture (rough black plastic vs steel punch plate) and wall pattern (vertical vs. horizontal stripes.) An initial preference/habituation test was first run where mice were able to freely traverse the apparatus for 30 minutes. The following day, mice were assigned to receive saline in one compartment and drug in the other. Saline pairings occurred in the morning, drug pairings occurred in the afternoon, and were separated by at least 4 hours, during which time mice returned to their home cages. Three such pairings were performed, where mice were injected, returned to the home cage for a 15 min pretreatment period, then confined to the injection-appropriate compartment for 30 minutes. Half the subjects (within strain) received drug pairings on the plastic floor+vertical stripes side, and the other half received drug pairings on the punch plate floor+horizontal stripes side. […] The post-conditioning preference test was identical to the initial preference/habituation session, where mice were freely able to traverse the apparatus for 30 minutes. Time spent in each compartment was recorded, and expressed as a preference score for the drug paired side (calculated as time spent in that compartment during the post-test—time spent there during the pre-test.) All preference and conditioning sessions were conducted under the same low light conditions as in the social preference tests.
# C57 and BTBR mice [2] = test: Social preference procedure: social novelty preference test; assay type: in vivo, mouse
# Description: (§1) All drugs were dissolved in physiological 0.9% saline and administered at a constant volume of 1 ml/100 g body weight. Because all drugs utilized in these studies were synthesized as hydrochloride (HCl) salts, they were weighed as salts prior to the preparation of all solutions. All drugs at all concentrations are readily dissolved in an aqueous solution at normal pH. Injections of all drugs were administered intraperitoneally (IP) to mimic pharmacokinetic parameters typical of oral administration, without the behaviour-impairing effects of gavage stress.
# (§2) This assay was conducted in adult male C57 and BTBR mice (n=6 per group) in a dedicated conditioning room where ambient light, sound, and human contact were tightly controlled.
# Social preference chambers consisted of two polycarbonate boxes (13.5 cm wide×22.5 cm tall×31.0 cm deep), floored with rough-textured black ABS plastic, and connected to one another by a 1.25″ PVC T-junction. An infrared photobeam emitter/detector array was mounted at each intersection of the T-junction and each preference compartment, and as a mouse traversed the apparatus, it would break the photobeam upon entry to or exit from each preference compartment. Beam breaks started or stopped a counter on an interfaced computer, allowing automated collection of time spent in each compartment. […]
# C57 and BTBR mice [3] = test: Social preference procedure: novelty preference test; assay type: in vivo, mouse; details: 1 mg/kg IP
# Description: as §1, §2
# Social preference chambers consisted of two polycarbonate boxes (13.5 cm wide×22.5 cm tall×31.0 cm deep), floored with rough-textured black ABS plastic, and connected to one another by a 1.25″ PVC T-junction. An infrared photobeam emitter/detector array was mounted at each intersection of the T-junction and each preference compartment, and as a mouse traversed the apparatus, it would break the photobeam upon entry to or exit from each preference compartment. Beam breaks started or stopped a counter on an interfaced computer, allowing automated collection of time spent in each compartment. At the end of each test, data were reported as time (in seconds) spent in each compartment, the number of entries into each compartment, and the average time spent in each compartment following an entry. Social preference tests were conducted in an iterative manner, with each test subject completing four distinct phases as described below. Between testing sessions, chambers were sanitized by wiping the insides with a disinfectant product provided by the UAMS Department of Laboratory Animal Medicine. At the end of the week (upon completion of all phases of the procedure), each apparatus was disassembled and all parts were sanitized. No food or water were available during social preference sessions, but were available in the home cage immediately afterwards. […]
# C57 and BTBR mice [4] = test: Social preference procedure: sociability test; assay type: in vivo, mouse; details: 1 mg/kg IP
# Description: as §1, §2
# (§3) Social preference chambers consisted of two polycarbonate boxes (13.5 cm wide×22.5 cm tall×31.0 cm deep), floored with rough-textured black ABS plastic, and connected to one another by a 1.25″ PVC T-junction. An infrared photobeam emitter/detector array was mounted at each intersection of the T-junction and each preference compartment, and as a mouse traversed the apparatus, it would break the photobeam upon entry to or exit from each preference compartment. Beam breaks started or stopped a counter on an interfaced computer, allowing automated collection of time spent in each compartment. At the end of each test, data were reported as time (in seconds) spent in each compartment, the number of entries into each compartment, and the average time spent in each compartment following an entry. Social preference tests were conducted in an iterative manner, with each test subject completing four distinct phases as described below. Between testing sessions, chambers were sanitized by wiping the insides with a disinfectant product provided by the UAMS Department of Laboratory Animal Medicine. At the end of the week (upon completion of all phases of the procedure), each apparatus was disassembled and all parts were sanitized. No food or water were available during social preference sessions, but were available in the home cage immediately afterwards.
# A single sociability session occurred the day after the novelty preference test, where one compartment contained a wire mesh cup with a dummy mouse inside while the other compartment contained a male NIH Swiss stranger mouse inside the previously empty cup (see FIG. 4). […] The position of the dummy mouse (left or right compartment) remained the same for each subject as during the novelty test the day before, thereby counterbalancing the position of the stranger mouse across subjects. NIH Swiss stranger mice were similar in mass and appearance to the dummy PVC mice, and were housed separately from the experimental subjects (C57 and BTBR mice) in the colony facility. The first time the experimental subjects ever encountered the stranger mice was when they entered the compartment where they were contained. During this session, mice were weighed, administered the same injection as the day before, and returned to their home cage for a 30 min pretreatment period. Mice were then introduced into the T-junction and allowed to explore both preference compartments for 15 minutes. Sociability tests always occurred on Wednesdays or Thursdays to prevent any weekend testing.
# C57 and BTBR mice [5] = test: Compartment entries during social novelty test (proxy for locomotor stimulant effects); assay type: in vivo, mouse; details: 1 mg/kg, C57 mice, relative to saline
# Excerpt: as §3
# Quantifying total entries into the preference compartments provides a proxy measurement for locomotor stimulant effects of the various doses of the various test drugs. This establishes a limit to the drug doses that can be tested in the social preference procedure, as induction of locomotor stimulant effects confounds preference assessments (because mice stop attending to the social stimuli in each compartment and instead spend their time engaged in locomotor behavior.) Motor activity varies across the distinct phases of social preference testing, in part because the habituation session is twice as long (30 minutes) as the novelty, sociability, and social novelty tests (15 minutes each), but also because mice emit high levels of exploratory behavior in novel environments. Thus, as familiarity with the test apparatus increases over successive exposures to the chambers, the number of entries decreases.
# (Note that entries were collected for every test, but drug effects on entries during earlier phases may be less reliable due to the confounding influence of changing familiarity with the apparatus across phases.)
# [6] = 3 mg/kg, x3 pairings, C57 and BTBR mice
# DAT, sequence (Q01959 whole entry, species assumed): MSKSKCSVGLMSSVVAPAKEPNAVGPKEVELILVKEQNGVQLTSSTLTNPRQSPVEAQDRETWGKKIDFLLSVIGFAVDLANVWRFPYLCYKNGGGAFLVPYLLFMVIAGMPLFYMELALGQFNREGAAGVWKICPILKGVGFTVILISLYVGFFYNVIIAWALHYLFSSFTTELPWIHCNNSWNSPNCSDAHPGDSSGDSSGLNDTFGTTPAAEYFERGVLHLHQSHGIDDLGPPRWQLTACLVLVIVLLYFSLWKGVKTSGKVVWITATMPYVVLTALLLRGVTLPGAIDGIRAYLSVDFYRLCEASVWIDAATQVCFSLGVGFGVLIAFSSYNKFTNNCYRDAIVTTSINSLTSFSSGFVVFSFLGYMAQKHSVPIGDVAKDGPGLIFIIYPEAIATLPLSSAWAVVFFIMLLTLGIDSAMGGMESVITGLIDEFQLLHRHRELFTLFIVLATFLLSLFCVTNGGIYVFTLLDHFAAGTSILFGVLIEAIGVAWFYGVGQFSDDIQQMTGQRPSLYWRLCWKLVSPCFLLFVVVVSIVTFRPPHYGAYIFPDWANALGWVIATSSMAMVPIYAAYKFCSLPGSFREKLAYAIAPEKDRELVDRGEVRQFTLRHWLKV
compound,measurement,setting,value
"CN[C@@H](C)Cc1ccc2c(c1)OCO2 [S-MDMA, reference compound]",DAT/SERT (calculated),DAT,0.383
same,place conditioning (place preference),C57 and BTBR mice [1]; [6],significant place preferences
"CN[C@H](C)Cc1ccc2c(c1)OCO2 [R-MDMA, reference compound]",DAT/SERT (calculated),DAT,0.010
same,place conditioning (place preference),"C57 and BTBR mice [1]; 10 mg/kg, either strain",no significant effects
"c1cc2c(cc1CC1CCCN1)OCO2 (racemic) [(R/S)-I, (R/S)-2-[(2H-1,3-benzodioxol-5-yl)methyl]pyrrolidine]","pro-social response (time with stranger mouse, social novelty preference)",C57 and BTBR mice [2]; 1 mg/kg,strongest pro-social response
same,"pro-social response (time with stranger mouse, social novelty preference)",C57 and BTBR mice [2]; 1.8 mg/kg,the response drops
"CNC(C)Cc1ccc2c(c1)OCO2 (racemic) [racemic MDMA, 1-(1,3-benzodioxol-5-yl)-N-methylpropan-2-amine, reference compound]",effect on novelty preference (time spent with dummy mouse),C57 and BTBR mice [3],no systematic effects
same,sociability (time spent with stranger mouse),C57 and BTBR mice [4]; BTBR mice,minor increase in the sociability response
same,sociability (time spent with stranger mouse),C57 and BTBR mice [4]; C57 mice,no impact
same,total entries during social novelty test,C57 and BTBR mice [5],no effect
same,place conditioning (place preference),C57 and BTBR mice [1]; [6],significant place preferences
"CN[C@@H](C)Cc1ccccc1 [S-methamphetamine, reference compound]",place conditioning (place preference),"C57 and BTBR mice [1]; 1.0 and 3.0 mg/kg, x3 pairings, C57 and BTBR mice",significant place preferences in C57 mice only
